# From PMC7523589 (Analytical methods : advancing methods and applications, 2020)
# Columns and labels:
# Plk1 [1] = target: T1, Plk1 (Homo sapiens, UniProt P53350); details: read-out: Reported Plk1 IC50 values; cited from earlier work
# full-length Plk1 = full-length Plk1 (Homo sapiens, UniProt P53350); assay: fluorescence recovery assay, competition of inhibitors with probe 4; type: binding
# Plk1 [2] = target: T1, Plk1; assay: fluorescence recovery assay, probe binding as a function of Plk1 concentration
# T1 sequence (P53350 whole entry): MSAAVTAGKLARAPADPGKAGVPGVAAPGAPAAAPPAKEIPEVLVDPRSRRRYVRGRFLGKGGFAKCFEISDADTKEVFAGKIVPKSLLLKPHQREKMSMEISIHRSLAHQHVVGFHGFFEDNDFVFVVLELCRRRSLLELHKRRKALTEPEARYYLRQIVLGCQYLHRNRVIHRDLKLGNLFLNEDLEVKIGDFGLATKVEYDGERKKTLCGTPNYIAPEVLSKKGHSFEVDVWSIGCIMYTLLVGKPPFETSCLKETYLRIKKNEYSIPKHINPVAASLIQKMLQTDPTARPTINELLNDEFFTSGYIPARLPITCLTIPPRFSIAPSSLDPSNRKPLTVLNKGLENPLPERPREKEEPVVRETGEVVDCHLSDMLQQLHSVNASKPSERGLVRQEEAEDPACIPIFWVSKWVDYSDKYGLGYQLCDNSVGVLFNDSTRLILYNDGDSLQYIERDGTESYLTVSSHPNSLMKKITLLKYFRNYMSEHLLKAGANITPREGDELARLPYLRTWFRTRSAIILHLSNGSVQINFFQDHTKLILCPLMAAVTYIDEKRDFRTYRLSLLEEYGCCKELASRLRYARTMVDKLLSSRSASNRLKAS
# Sequence of full-length Plk1 (P53350 whole entry): as above
molecule,measurement,setting,value
SBE13,IC50,Plk1 [1],0.2 nM
CC[C@@H]1C(=O)N(C)c2cnc(Nc3ccc(C(=O)N[C@H]4CC[C@H](N5CCN(CC6CC6)CC5)CC4)cc3OC)nc2N1C(C)C [BI6727],IC50,full-length Plk1,31 ± 0.67 nM
FITC-PEG-Lys(BI2536) [compound 4],Kd,Plk1 [2]; 10 nM of probe 4,32 ± 0.78 nM
same,Kd,Plk1 [2]; 20 nM of probe 4,33 ± 0.98 nM
same,Kd,Plk1 [2]; 30 nM of probe 4,32 ± 1.1 nM
same,Kd,Plk1 [2]; 40 nM of probe 4,38 ± 1.8 nM
same,Kd,Plk1 [2]; incubation time 15 minutes,42 ± 1.5 nM
same,Kd,Plk1 [2]; incubation time 30 minutes,34 ± 1.1 nM
same,Kd,Plk1 [2]; incubation time 60 minutes,32 ± 1.5 nM
